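In this assay, cells in 96-well plates receive the compound at five concentrations for 48 hours. Endpoints are linearly interpolated between the surrounding concentrations. GI50 is the concentration that inhibits growth by half.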 Active and inactive are the calls of the source. Cut-off read from the data, not from the text of the source: active = GI50 up to about 1.1 µM and inactive = higher.
How the values were obtained:
Test in all cases: growth of human tumour cells (NCI), 48 h
HT-29 = system: HT-29
KM12 = system: KM12
SN12C = system: SN12C
MCF7 = system: MCF7
U-251 = system: U-251
786-0 = system: 786-0
HCT-15 = system: HCT-15
PC-3 = system: PC-3
SW-620 = system: SW-620
HCC 2998 = system: HCC 2998
Hs-578T = system: Hs-578T
SK-MEL-2 = system: SK-MEL-2
RPMI-8226 = system: RPMI-8226
Malme-3M = system: Malme-3M
UACC-257 = system: UACC-257
A549 = system: A549
NCI/ADR-RES = system: NCI/ADR-RES
SK-MEL-5 = system: SK-MEL-5
MOLT-4 = system: MOLT-4
BT-549 = system: BT-549

| Compound | GI50 (HT-29) | GI50 (KM12) | GI50 (SN12C) | GI50 (MCF7) | GI50 (U-251) | GI50 (786-0) | GI50 (HCT-15) [µM] | GI50 (PC-3) | GI50 (SW-620) | GI50 (HCC 2998) | GI50 (Hs-578T) | GI50 (SK-MEL-2) | GI50 (RPMI-8226) | GI50 (Malme-3M) | GI50 (UACC-257) | GI50 (A549) | GI50 (NCI/ADR-RES) | GI50 (SK-MEL-5) | GI50 (MOLT-4) | GI50 (BT-549) |
| --- | --- | --- | --- | --- | --- | --- | --- | --- | --- | --- | --- | --- | --- | --- | --- | --- | --- | --- | --- | --- |
| NC(Cc1ccccc1)C(=O)NC(Cc1ccccc1)NC(=O)C(Cc1c[nH]c2ccccc12)C(=O)O (centres undefined) | > 100 µM (inactive) | > 100 µM (inactive) | > 100 µM (inactive) | > 100 µM (inactive) | > 100 µM (inactive) | > 100 µM (inactive) | > 100 | > 100 µM (inactive) | > 100 µM (inactive) | > 100 µM (inactive) | 37.7 µM (inactive) | 9.35 µM (inactive) | > 100 µM (inactive) | > 100 µM (inactive) | > 100 µM (inactive) | > 100 µM (inactive) | > 100 µM (inactive) | 12 µM (inactive) |  |  |
| Clc1ncnc(Cl)c1Cl | > 100 µM (inactive) | > 100 µM (inactive) | > 100 µM (inactive) | > 100 µM (inactive) | > 100 µM (inactive) | > 100 µM (inactive) | > 100 | > 100 µM (inactive) | > 100 µM (inactive) | > 100 µM (inactive) | > 100 µM (inactive) |  | 4.41 µM (inactive) | > 100 µM (inactive) |  | > 100 µM (inactive) | > 100 µM (inactive) | > 100 µM (inactive) | > 100 µM (inactive) |  |
| CCCC(=O)OC1CC(n2cc(F)c(=O)[nH]c2=O)OC1COP(=O)(OCC(Cl)(Cl)Cl)OCC(Cl)(Cl)Cl (centres undefined) | 13.7 µM (inactive) | 19.1 µM (inactive) | 22 µM (inactive) | 0.0697 µM (active) | 4.02 µM (inactive) | 0.31 µM (active) | 22.1 | 7.74 µM (inactive) | 19.9 µM (inactive) | < 0.01 µM (active) | 13.9 µM (inactive) | > 59.4 µM (inactive) | 1.47 µM (inactive) | 5.41 µM (inactive) | 21.7 µM (inactive) | 0.461 µM (active) | 1.17 µM (inactive) | 2.44 µM (inactive) | 2.48 µM (inactive) |  |
| O=C1Nc2ccccc2/C1=N/Nc1nc(-c2ccc([N+](=O)[O-])cc2)cs1 | 22.9 µM (inactive) | 28.5 µM (inactive) | 27 µM (inactive) | 35.3 µM (inactive) | 57 µM (inactive) | 19.4 µM (inactive) | 14.5 | 24 µM (inactive) | 32.7 µM (inactive) | 21.9 µM (inactive) |  | 26.9 µM (inactive) |  |  | 32.1 µM (inactive) | 30.1 µM (inactive) | 15.6 µM (inactive) | 31.7 µM (inactive) | 51.9 µM (inactive) | 15.6 µM (inactive) |
| Cc1ccc(S(=NS(=O)(=O)c2ccc(C)cc2)c2ccc(C)cc2)cc1 | > 100 µM (inactive) | 48.5 µM (inactive) | > 100 µM (inactive) | 68.2 µM (inactive) | 57.5 µM (inactive) | > 100 µM (inactive) | 57 | 64 µM (inactive) | > 100 µM (inactive) |  |  |  | > 100 µM (inactive) | > 100 µM (inactive) | > 100 µM (inactive) | 62.5 µM (inactive) | 38.7 µM (inactive) |  | > 10 µM (inactive) | > 100 µM (inactive) |
| S=c1[nH]n2c(CCCCCCCCc3nnc4sc(=S)[nH]n34)nnc2s1 | > 100 µM (inactive) | > 100 µM (inactive) | > 100 µM (inactive) | > 100 µM (inactive) | > 100 µM (inactive) | > 100 µM (inactive) | > 100 | > 100 µM (inactive) | > 100 µM (inactive) | > 100 µM (inactive) |  | > 100 µM (inactive) | > 100 µM (inactive) | > 100 µM (inactive) | > 100 µM (inactive) | > 100 µM (inactive) | > 100 µM (inactive) |  | > 100 µM (inactive) | > 100 µM (inactive) |
| O=Cc1ccc2c(c1)CC1(Cc3ccccc3C1)C2 | 23.4 µM (inactive) | 55.8 µM (inactive) | 18.1 µM (inactive) | 31 µM (inactive) | 17.8 µM (inactive) | 14.2 µM (inactive) | 11.5 | 25.9 µM (inactive) |  | 59 µM (inactive) | 3.72 µM (inactive) | 11.2 µM (inactive) | 24.8 µM (inactive) | 18.2 µM (inactive) | 20.5 µM (inactive) | > 100 µM (inactive) | 26.5 µM (inactive) | 16 µM (inactive) | 18.4 µM (inactive) |  |
| COC(=O)C1=C(CCCCO[Si](C)(C)C(C)(C)C)NC(=O)N2[C@@H](CCOCc3ccccc3)CC[C@H]12 | 12.3 µM (inactive) | 18.3 µM (inactive) | 16.7 µM (inactive) | 27 µM (inactive) | 14.4 µM (inactive) | 15.9 µM (inactive) | 17.8 | 21.1 µM (inactive) |  | 24.4 µM (inactive) |  | 16.2 µM (inactive) | 23.4 µM (inactive) | 19.4 µM (inactive) | 21.1 µM (inactive) | 14.8 µM (inactive) | 15.3 µM (inactive) | 10.3 µM (inactive) | 18.4 µM (inactive) | 20.5 µM (inactive) |
| COc1nc2c(c(=O)[nH]1)N=C(c1ccc([N+](=O)[O-])cc1)CC(c1ccccc1)N2 (centres undefined) | > 100 µM (inactive) | 70.5 µM (inactive) | > 100 µM (inactive) | 57.7 µM (inactive) | > 100 µM (inactive) | > 100 µM (inactive) |  | 84.3 µM (inactive) | > 100 µM (inactive) | > 100 µM (inactive) |  | > 100 µM (inactive) | 44.1 µM (inactive) | > 100 µM (inactive) | > 100 µM (inactive) | 83.4 µM (inactive) | > 100 µM (inactive) | 49.7 µM (inactive) | 54.3 µM (inactive) | > 100 µM (inactive) |
| N#CC(C#N)=C/C=C/c1ccccc1[N+](=O)[O-] | 6.62 µM (inactive) | 5.02 µM (inactive) | > 10 µM (inactive) | 3.95 µM (inactive) | > 10 µM (inactive) | 3.33 µM (inactive) | 7.08 | 5.06 µM (inactive) | 4.08 µM (inactive) | > 10 µM (inactive) | 3.48 µM (inactive) | > 10 µM (inactive) | 3.19 µM (inactive) | 3.73 µM (inactive) | 2.68 µM (inactive) | > 10 µM (inactive) | 2.16 µM (inactive) | 3.74 µM (inactive) | 4.54 µM (inactive) |  |
| Cc1ccc(Cc2n[nH]c(=O)n2-c2ccccc2)cc1 | > 100 µM (inactive) | > 100 µM (inactive) | > 100 µM (inactive) | > 100 µM (inactive) | > 100 µM (inactive) | > 100 µM (inactive) | > 100 | > 100 µM (inactive) | > 100 µM (inactive) | > 100 µM (inactive) |  | 73.1 µM (inactive) | 36.1 µM (inactive) | > 100 µM (inactive) | > 100 µM (inactive) | > 100 µM (inactive) | > 100 µM (inactive) | > 100 µM (inactive) | > 100 µM (inactive) | > 100 µM (inactive) |
| COc1ccc(/C=c2/sc3n(c2=O)C(c2ccccc2)C2(O)CCCCC2N=3)cc1 (centres undefined) | > 12.5 µM (inactive) |  |  | > 12.5 µM (inactive) | > 12.5 µM (inactive) | > 12.5 µM (inactive) |  | > 12.5 µM (inactive) | > 12.5 µM (inactive) | > 12.5 µM (inactive) |  | > 12.5 µM (inactive) | > 12.5 µM (inactive) | > 12.5 µM (inactive) | > 12.5 µM (inactive) | > 12.5 µM (inactive) |  | > 12.5 µM (inactive) | > 12.5 µM (inactive) | > 12.5 µM (inactive) |
| CCOC(=O)C(NC(=O)CC(C)C)(NC(C)C)C(F)(F)F (centres undefined) | > 100 µM (inactive) | > 100 µM (inactive) | > 100 µM (inactive) | > 100 µM (inactive) | > 100 µM (inactive) | > 100 µM (inactive) | > 100 | > 100 µM (inactive) | > 100 µM (inactive) | > 100 µM (inactive) | > 100 µM (inactive) | > 100 µM (inactive) | > 100 µM (inactive) | > 100 µM (inactive) | > 100 µM (inactive) | > 100 µM (inactive) | > 100 µM (inactive) | > 100 µM (inactive) | > 100 µM (inactive) |  |
| O=C(OCCN1CCCCC1)C(c1ccccc1)C1(O)CCSCC1 (centres undefined) | > 100 µM (inactive) | > 100 µM (inactive) | > 100 µM (inactive) | > 100 µM (inactive) | > 100 µM (inactive) | > 100 µM (inactive) | > 100 | > 100 µM (inactive) | > 100 µM (inactive) | > 100 µM (inactive) | > 100 µM (inactive) | > 100 µM (inactive) | > 100 µM (inactive) | > 100 µM (inactive) | > 100 µM (inactive) | > 100 µM (inactive) | > 100 µM (inactive) | > 100 µM (inactive) | > 100 µM (inactive) |  |
| COC(=O)[C@]1(c2cc3ccccc3[nH]2)CC2CNC1C1OC(C)(C)OC21 (some centres undefined) | > 100 µM (inactive) | > 100 µM (inactive) | > 100 µM (inactive) | > 100 µM (inactive) | > 100 µM (inactive) | > 100 µM (inactive) | > 100 | > 100 µM (inactive) | > 100 µM (inactive) | > 100 µM (inactive) |  | > 100 µM (inactive) | 61.4 µM (inactive) | > 100 µM (inactive) | > 100 µM (inactive) | > 100 µM (inactive) | > 100 µM (inactive) | > 100 µM (inactive) | 66.4 µM (inactive) | > 100 µM (inactive) |
